Source: EP1285971B1, “Methods for the phenotypic and genotypic assessment of the drug sensitivity of HIV integrase variants” (Tibotec Pharmaceuticals Ltd., priority 2001, dated 2003)
Where two headings read alike, the source gives them in different places.

Assays:
Experiment in all cases: microbe, parasite or virus in culture
Details in all cases: for fold change: fold change in EC50
[1] = tested on: patient_146514; type: cell-based, HIV
Protocol: (§1) The integrase encoding sequence was amplified from either wildtype HIV-1 (IIIB) or NL4.3 virus, or HXB2D site-directed mutant viruses containing mutations in integrase (such as T66I, S153Y, M154I, or combinations thereof) (Hazuda et al., Science 2000, 287, 646-650), or patient samples. Starting from RNA, extracted from virus supernatant or plasma using the QIAamp® viral RNA extraction kit (Qiagen), cDNA was synthesized by reverse transcription (Expand TM reverse transcriptase, 30 min at 42°C) with the primer 3'EGINT10 (SEQ ID NO 11), followed by a nested PCR. The outer PCR was performed with the primers 5'EGINT1 (SEQ ID NO 1) and 3'EGINT10 (SEQ ID NO 11) (ΔR-IN-vif construct) or 5'EGINT3 (SEQ ID NO 4) and 3'EGINT10 (SEQ ID NO 11) (ΔIN construct) (Expand™ High Fidelity PCR system), and 5 µl of the outer product was used for an inner PCR with primers 5'EGINT2 (SEQ ID NO 3) and 3'EGINT11 (SEQ ID NO 12) (ΔR-IN-vif construct) or 5'EGINT4 (SEQ ID NO 5) and 3'EGINT6 (SEQ ID NO 7) (ΔIN construct). In a second protocol the outer primers were identical as described above, the inner primers are 5'EGINT5 (SEQ ID NO 6) and 3'EGINT6 (SEQ ID NO 7). The amplicons can be used for genotyping and phenotyping. Cycling conditions for both PCRs are denaturation for 3 min at 95°C, followed by 30 cycles of 1 min 90°C, 30 sec 55°C, and 2 min 72°C. A final extension was performed at 72°C for 10 min. For recombination, PCR products are purified using the QiaQuick® 96 PCR BioRobot kit (Qiagen), according to the manufacturer's protocol. If the protocol starts from DNA containing the HIV material such as proviral DNA, the reverse transcriptase step is not needed. The nested approach is also not needed when starting from proviral DNA. The obtained amplicons were sequenced using the primers: In_seq1F (SEQ ID NO 17), In_seq2F (SEQ ID NO 18), In_seq3F (SEQ ID NO 19), IN_seq1R (SEQ ID NO 20), IN_seq2R (SEQ ID NO 21), and IN_seq3R (SEQ ID NO 22).
(§2) A ΔR-IN-vif or ΔIN deletion construct was generated by site-directed mutagenesis on the template pSV40HXB2D with the primers MUT-IN1 (SEQ ID NO 13) and MUT-IN2 (ΔR-IN-vif construct) (SEQ ID NO 14) or MUT-IN3 (SEQ ID NO 15) and MUT-IN4 (SEQ ID NO 16) (ΔIN construct) (protocol Site-directed mutagenesis kit, Stratagene). After DpnI digestion for removal of the methylated template DNA, the construct was digested with SmaI and ligated to circulize the plasmid. The plasmid was transformed into competent cells such as Top10 cells, and colonies were screened for the presence of the deletion construct. The IN-deletion construct was checked by sequence analysis with primers 5'EGINT1 (SEQ ID NO 1) or […] and 3'EGINT10 (SEQ ID NO 11) or 3'EGINT11 (SEQ ID NO 12). For use in recombination experiments, large-scale plasmid DNA preparations were linearized by SmaI digestion and recombined with PCR amplified integrase genes from wild type, mutant, or patient viruses. The plasmid containing the integrase deletion (ΔIN) has been deposited pSV40HXB2D-ΔIN. The sequence of said plasmid is 14377 nucleotides long. The ΔR-IN-vif deletion construct is 13975 nucleotides long. The pSV40HXB2D-ΔIN was deposited at the Belgian Coordinated Collections of Micro-Organisms located at the Universiteit Gent - Laboratorium voor Moleculaire Biologie on August 5, 2002 and the accession number is LMBP 4574.
(§3) Recombinant virus was produced by co-transfection by electroporation of the SmaI-linearized IN-deletion construct and the integrase amplicon into MT4 cells or MT4 cells equipped with an LTR driven reporter gene construct. Production of recombinant virus was evaluated by scoring the cytopathogenic effect (CPE) that is induced by HIV-infection of MT4 cells or by the LTR-driven reporter signal induced by HIV infection in MT4 reporter cells.

[2] = tested on: NL 4-3; type: cell-based, HIV-1
Protocol: as §1, §2, §3

[3] = tested on: WT III B; type: cell-based, HIV-1
Protocol: as §1, §2, §3

[4] = AVE 2, patient_146514, primer set 3
[5] = Human immunodeficiency virus 1, AVE 2, patient_146514, primer set 3
[6] = Human immunodeficiency virus 1, AVE 1, NL 4-3, primer set 3
[7] = Human immunodeficiency virus 1, NL43, AVE 4, NL4-3, primer set 4
[8] = Human immunodeficiency virus 1, AVE 3, WT III B, primer set 3
[9] = Human immunodeficiency virus 1, AVE 5, WT III B, primer set 4

SMILES	EC50 [1, 4] [nM]	fold change [1, 4]	EC50 ([2]; AVE 1, NL 4-3, primer set 3) [nM]	fold change ([2]; AVE 1, NL 4-3, primer set 3)	EC50 ([2]; AVE 4, NL4-3, primer set 4) [nM]	fold change ([2]; AVE 4, NL4-3, primer set 4)	EC50 ([3]; AVE 3, WT III B, primer set 3) [nM]	fold change ([3]; AVE 3, WT III B, primer set 3)	EC50 ([3]; AVE 5, WT III B, primer set 4) [nM]	fold change ([3]; AVE 5, WT III B, primer set 4)	EC50 [1, 5] [nM]	EC50 [2, 6] [nM]	EC50 [2, 7] [nM]	EC50 [3, 8] [nM]	EC50 [3, 9] [nM]	EC50 ([1]; AVE 2, patient_146514, primer set 3, read-out: EC 50) [nM]	EC50 ([2]; AVE 1, NL 4-3, primer set 3, read-out: EC 50) [nM]	EC50 ([2]; AVE 4, NL4-3, primer set 4, read-out: EC 50) [nM]	EC50 ([3]; AVE 3, WT III B, primer set 3, read-out: EC 50) [nM]	EC50 ([3]; AVE 5, WT III B, primer set 4, read-out: EC 50) [nM]
Cc1cc(C#N)cc(C)c1Oc1nc(Nc2ccc(C#N)cc2)nc(N)c1Br [Compound 2, 4-[[6-amino-5-bromo-2-[(4-cyanophenyl)amino]-4-pyrimidinyl]oxy]-3,5-dimethyl-Benzonitrile]	3.9	1,3	2.6	0,8	2.8	0,9	2.8	0,9	2.9	0,9										
CC(C)(C)NC(=O)[C@@H]1C[C@@H]2CCCC[C@@H]2CN1C[C@@H](O)[C@H](Cc1ccccc1)NC(=O)[C@H](CC(N)=O)NC(=O)c1ccc2ccccc2n1 [SQV, Saquinavir]		1,7		1,2		1,9		0,7		1,8	34.5	23.3	38.5	13	35.6					
O=c1[nH]cnc2c1ncn2[C@H]1CC[C@@H](CO)O1 [DDI, Didanosine]		2,2		0,7		1,6		0,5		1,6	10400	3360	7890	2540	7500					
CC(C)CN(C[C@@H](O)[C@H](Cc1ccccc1)NC(=O)O[C@H]1CCOC1)S(=O)(=O)c1ccc(N)cc1 [APV, Amprenavir]		1,4		0,6		1,3		0,5		0,7	117	49.6	113	46	60.6					
O=C(O)C1=CC(=C(c2ccc(O)c(C(=O)O)c2)c2ccc(O)c(C(=O)O)c2)C=CC1=O [ATA]		1,0		0,9		1,2		0,4		0,4						1970	1960	2510	730	861
CC(C)Oc1ccc(Cc2ccccc2)cc1C(=O)CC(=O)C(=O)O [Compound 4, 2-(1-methylethyloxy)-α,γ dioxo-5-(phenylmethyl)-benzenebutanoic acid]		1,0		0,6		0,9		0,4		0,7	280	172	242	106	186					
CC(C)(C)NC(=O)[C@@H]1CN(Cc2cccnc2)CCN1C[C@@H](O)C[C@@H](Cc1ccccc1)C(=O)N[C@H]1c2ccccc2C[C@H]1O [IDV, Indinavir]		1,3		0,7		1,2		0,4		0,9	56.4	31.5	50.7	18.4	41.3					
